Test results as given in patent EP1285918A1, “C7 Ester substituted taxanes as antitumor agents” (Florida State University Research Foundation, Inc., priority 2001, dated 2003).
Where two headings read alike, the source gives them in different places.

Legend:
[1] = tested on: NCI-H1299 (H1299) carcinoma; conditions: i.v. split dose qd x 1 at MTD (Taxol 36 mg/kg, 1393 72.1 mg/kg), 6 mice/group, Day 60
Protocol: Two antitumor compounds were formulated for an i.v. dosing regime prepared in the following vehicle: 10% ethanol, 10% Cremophor and 80% isotonic saline. […] Other compounds were formulated similarly.
The MTDs for the antitumor compounds were calculated from earlier single dose data for mice receiving i.v. administration of these compounds. […] Vehicle control animals were dosed twice intravenously with half the total volume being given separated by one hour. The study was terminated at Day 60.
The results are summarized in Table 1 and include mean days of survival (MDS), number of toxic deaths, number of survivors, number of complete or partial responses, and number with stable disease. The mean days of survival is the number of days after which a neoplasm reached a size of 1.5 g and the animal was euthanized. A complete response is obtained if the tumor is not palpable at the end of the study. A partial response is obtained if the tumor shrinks to a size smaller than its size on Day 1 of the study.
A tumor scoring system was designed to provide a more quantitative ranking of efficacy (therapeutic potential) among the antitumor agents evaluated against the different human solid tumor xenografts. Each mouse in a study was given a score of from 1 to 10 at the end of the study. The scores can be summarized as follows:
The individual score for each mouse was averaged into a mean score for each treatment group. […]
The treatment protocol for the H1299 test was identical to the SK-MES test protocol. […]

[2] = tested on: SKMES Human Lung Carcinoma Xenograft
Protocol: Antitumor compounds were formulated for oral administration over a wide dose range in a study to investigate the efficacy of this compound against the SKMES human lung cancer xenograft. The antitumor compounds were prepared in the following vehicle: 5% ethanol, 5% Cremophor and 90% isotonic saline.
Female Nu/Nu mice (6-8 weeks of age; implanted with 1 mm^3 SKMES lung carcinoma fragments in the flank) were sorted into treatment groups of six mice each. SKMES size ranges and group mean SKMES size ranges were 126-448 mg and 238-241 mg, respectively. […] Treatments were administered as a single oral bolus on Day 1, and the study was terminated on Day 60.
The mean days of survival is the number of days after which a SKMES neoplasm reached a size of 2.0 g and the animal was euthanized. A complete response is obtained if the tumor is not palpable at the end of the study. A partial response is obtained if the tumor shrinks to a size smaller than its size on Day 1 of the study. […]

[3] = tested on: SKMES human lung cancer xenograft; conditions: for Complete Responses / Partial Responses / Stable Disease / Toxic Deaths / MDS (n) / % Total Response: 6 mice/group, study end Day 62; for MDS (n): days until tumor reached 2.0 g; for MDS: 2.0 g cut-off
Protocol: Female Nu/Nu mice (6-8 weeks of age; implanted with 1 mm^3 SKMES lung carcinoma fragments in the flank) were sorted into treatment groups of six mice each. […] Treatment was administered as a single bolus on Day 1, and the study was terminated on Day 62.
The mean days of survival is the number of days after which a SKMES neoplasm reached a size of 2.0 g and the animal was euthanized. A complete response is obtained if the tumor is not palpable at the end of the study. A partial response is obtained if the tumor shrinks to a size smaller than its size on Day 1 of the study.

[4] = tested on: HCT116 human colon carcinoma xenograft; conditions: 10 mice/group, study end Day 60
Source text: Six groups consisting of ten mice in each group were made up of female Nu/Nu mice (8-9 weeks of age; implanted with 1 mm^3 HCT116 human […] carcinoma fragments in the flank). Another six groups consisting of ten mice in each group were made up of male Nu/Nu mice (6-7 weeks of age; implanted with 1 mm^3 HCT116 human […] carcinoma fragments in the flank). […] The study was terminated on Day 60.
The results are summarized in Table 19 for the female mice and Table 20 for the male mice. Included are mean days of survival (MDS), number of toxic deaths, number of survivors, number of complete or partial responses, and number with stable disease. The mean days of survival is the number of days after which an […] neoplasm reached a size of 1.5 g and the animal was euthanized. A complete response is obtained if the tumor is not palpable at the end of the study. A partial response is obtained if the tumor shrinks to a size smaller than its size on Day 1 of the study. […]

[5] = 73 mg/kg single oral bolus Day 1, 6 mice/group, study end Day 60
[6] = 104 mg/kg single oral bolus Day 1, 6 mice/group, study end Day 60
[7] = 5.2 mg/kg single IV bolus Day 1
[8] = 5.2 mg/kg single oral bolus Day 1
[9] = 10.4 mg/kg single IV bolus Day 1
[10] = 10.4 mg/kg single oral bolus Day 1
[11] = 20.8 mg/kg single IV bolus Day 1
[12] = 20.8 mg/kg single oral bolus Day 1
[13] = 42 mg/kg single oral bolus Day 1
[14] = 73 mg/kg single oral bolus Day 1
[15] = 104 mg/kg single IV bolus Day 1
[16] = 104 mg/kg single oral bolus Day 1
[17] = female mice, 104 mg/kg i.v. in 5% ethanol and 95% Liposyn II (Group 4)
[18] = female mice, 104 mg/kg i.v. in 5% ethanol and 95% Liposyn III (Group 5)
[19] = female mice, 104 mg/kg oral in 5% ethanol, 5% Cremophor and 90% isotonic saline (Group 6)
[20] = male mice, 73 mg/kg i.v. in 5% ethanol and 95% Liposyn II (Group 4)
[21] = male mice, 73 mg/kg i.v. in 5% ethanol and 95% Liposyn III (Group 5)
[22] = male mice, 73 mg/kg oral in 5% ethanol, 5% Cremophor and 90% isotonic saline (Group 6)

CCC(=O)O[C@H]1C[C@H]2OC[C@@]2(OC(C)=O)[C@H]2[C@H](OC(=O)c3ccccc3)[C@]3(O)C[C@H](OC(=O)[C@H](O)[C@@H](NC(=O)OC(C)(C)C)c4ccco4)C(C)=C([C@@H](O)C(=O)[C@]12C)C3(C)C [Compound 1393, 3'-Desphenyl-3'-(2-furyl)-7-propionyl taxotere]
36.3 ±1.5 (3) days: MDS (n) [3, 14]
100%: % Total Response ([3]; 73 mg/kg single IV bolus Day 1) | % Total Response [3, 15]
23.2 ± 1.8 (6) days: MDS (n) [3, 11]
0%: % Total Response [3, 8] | % Total Response [3, 10] | % Total Response [3, 11] | % Total Response [3, 12] | % Total Response [3, 13]
6: Complete Responses [4, 21] | Complete Responses [4, 22]
1: Partial Responses ([3]; 42 mg/kg single IV bolus Day 1) | Toxic Deaths [3, 14] | Partial Responses [3, 15] | Partial Responses [3, 16] | Partial Responses [4, 20] | Stable Disease [4, 22]
3: Complete Responses ([3]; 42 mg/kg single IV bolus Day 1) | Complete Responses ([3]; 73 mg/kg single IV bolus Day 1) | Partial Responses ([3]; 73 mg/kg single IV bolus Day 1) | Partial Responses [4, 17] | Partial Responses [4, 18] | Partial Responses [4, 19] | Partial Responses [4, 22]
66.7%: % Total Response ([3]; 42 mg/kg single IV bolus Day 1)
0: Toxic Deaths ([2]; 5.2 mg/kg single oral bolus Day 1, 6 mice/group, study end Day 60) | Toxic Deaths ([2]; 10.4 mg/kg single oral bolus Day 1, 6 mice/group, study end Day 60) | Toxic Deaths ([2]; 20.8 mg/kg single oral bolus Day 1, 6 mice/group, study end Day 60) | Toxic Deaths ([2]; 42 mg/kg single oral bolus Day 1, 6 mice/group, study end Day 60) | Toxic Deaths [2, 5] | Toxic Deaths [2, 6] | Complete Responses [3, 7] | Partial Responses [3, 7] | Stable Disease [3, 7] | Toxic Deaths [3, 7] | Complete Responses [3, 8] | Partial Responses [3, 8] | Stable Disease [3, 8] | Toxic Deaths [3, 8] | Complete Responses [3, 9] | Partial Responses [3, 9] | Stable Disease [3, 9] | Toxic Deaths [3, 9] | Complete Responses [3, 10] | Partial Responses [3, 10] | Stable Disease [3, 10] | Toxic Deaths [3, 10] | Complete Responses [3, 11] | Partial Responses [3, 11] | Stable Disease [3, 11] | Toxic Deaths [3, 11] | Complete Responses [3, 12] | Partial Responses [3, 12] | Stable Disease [3, 12] | Toxic Deaths [3, 12] | Stable Disease ([3]; 42 mg/kg single IV bolus Day 1) | Toxic Deaths ([3]; 42 mg/kg single IV bolus Day 1) | Complete Responses [3, 13] | Partial Responses [3, 13] | Stable Disease [3, 13] | Toxic Deaths [3, 13] | Stable Disease ([3]; 73 mg/kg single IV bolus Day 1) | Toxic Deaths ([3]; 73 mg/kg single IV bolus Day 1) | Partial Responses [3, 14] | Stable Disease [3, 14] | Stable Disease [3, 15] | Toxic Deaths [3, 15] | Stable Disease [3, 16] | Toxic Deaths [3, 16] | Toxic Deaths [4, 17] | Toxic Deaths [4, 18] | Toxic Deaths [4, 19] | Toxic Deaths [4, 20] | Partial Responses [4, 21] | Toxic Deaths [4, 22]
23.2 ± 4.8 (4) days: MDS (n) ([2]; 42 mg/kg single oral bolus Day 1, 6 mice/group, study end Day 60, days until tumor reached 2.0 g)
14.5 ± 1.1 (6) days: MDS (n) [3, 13]
16.3 days: MDS ([3]; SKMES, 1393 single IV bolus 10.4 mg/kg (Group 7))
40%: % Total Response [3, 14]
7: Complete Responses [4, 20]
5: Complete Responses [3, 15] | Complete Responses [4, 18]
2^a: Toxic Deaths ([4]; male mice, 73 mg/kg i.v. in 5% ethanol and 95% Liposyn III (Group 5), footnote: one death due to an unknown reason)
9.2 ± 0.8 (6) days: MDS (n) [3, 8]
not active: activity ([3]; SKMES, 1393 orally, lower doses (20.8, 10.4, 5.2 mg/kg))
9.6 ±0.6 (6) days: MDS (n) [3, 12]
16.3 ± 1.3 (6) days: MDS (n) [3, 9]
23.2 days: MDS ([2]; SKMES, 1393 single oral bolus 42 mg/kg (Group 7), 2.0 g cut-off) | MDS ([3]; SKMES, 1393 single IV bolus 20.8 mg/kg (Group 6))
9.1 ± 0.7 (6) days: MDS (n) [3, 10]
83.3%: % Total Response [2, 5] | % Total Response [2, 6] | % Total Response [3, 16]
10.5 ± 0.9 (6) days: MDS (n) [3, 7]
2: Toxic Deaths [1] | Complete Responses [3, 14] | Stable Disease [4, 17] | Stable Disease [4, 18] | Stable Disease [4, 19] | Stable Disease [4, 20] | Stable Disease [4, 21]
4: Complete Responses [3, 16] | Complete Responses [4, 19]
